In data set [1] the test system is MaDA. The data set is described as follows: Conversion of dienophile substrates in the enzymatic D-A reaction. Type of data set: biochemical, Morus alba. As to the method:
In the present Example, the conversion of Dienophiles 1 and 5-9 under enzymatic D-A reaction conditions were also determined. The reaction conditions were as follows:
To 96 μL reaction buffer (20 mM Tris-HCl, pH 8.0) was added 2 μL Diene 3 (final concentration, 200 μM) and 1 μL different chalcones or their derivatives (i.e., Dienophiles 1 and 5-9, final concentration, 100 μM). Then 1 μL MaDA or SUMO-MaDA (final concentration, 540 nM) was added. The resulting mixture was reacted at 50° C. for 5 min. The reactions were terminated by the addition of 200 μl of methanol. The reaction liquid were analyzed using the HPLC analysis condition mentioned above. After three repeated experiments, the conversion of Dienophiles 1, 7, 8, 9, 5 and 6 are determined as 74%, 55%, 13%, 78%, 0%, 71% respectively, as shown in FIG. 12.

The subject of another data set is MaDA-2. The data set is described as follows: Activity test of MaDA-2. The following applies: dienophile 100 μM, Diene 3, 22, 23 or 24 100 μM, SUMO-MaDA-2 54 nM, pH 8.0, 50° C., 5 min. Type of data set: biochemical, Morus alba. The procedure:
Under the catalyzation of MaDA-2, the reaction activity between Dienophile 1 and different dienes 3, 22, 23 and 24 was measured following the protocol as follows: to a […] reaction buffer (20 mm Tris-HCl, pH=8.0), 1 μL of Dienophile 1 (final concentration of 100 μM) and 1 μL Diene 3, 22, 23 or 24 (final concentration of 100 μM) were added, and then 1 μL of SUMO-MaDA-2 (final concentration 54 nM) was added. The reaction mixture was reacted at 50° C. for 5 min, then quenched by adding 200 μL methanol. The reaction solution was analyzed by HPLC under the analysis conditions mentioned above, and the results were shown in FIG. 20. […] However, unlike MaDA, MaDA-2 can recognize Dienophile 5 to generate corresponding natural products or their analogs.

In another data set the test system is MaDA-1. The data set can be described thus: Enzymatic activity test for MaDA-1. Type of data set: biochemical, Morus alba. Particulars: Diene 3 100 μM, Dienophile 1 100 μM, SUMO-MaDA-1 27 nM, pH 8.0, 50° C., 10 min. As to the method:
(§1) The activity of MaDA-1 was tested as follows: to a 97 μL reaction buffer (20 mm Tris-HCl, pH=8.0), 1 μL of Diene 3 (final concentration of 100 μM) and 1 […] (final concentration of 100 μM) were added, and then 1 μL of SUMO-MaDA protein (final concentration 27 nM) or SUMO-MaDA-1 (final concentration 27 nM) was added. The reaction mixture was reacted at 50° C. for 10 min, then quenched by adding 200 μL methanol, and centrifuged at 13,000 rpm for 30 min. The supernatant was analyzed by HPLC. In the control group as blank control, no protein was added.

Data set [2] deals with MaDA. The data set can be described thus: Enzymatic activity test, MaDA run alongside MaDA-1. The following applies: Diene 3 100 μM, Dienophile 1 100 μM, SUMO-MaDA 27 nM, pH 8.0, 50° C., 10 min. It counts as biochemical, Morus alba. As to the method:
as §1

Data set [3] in a line: Optimum temperature and pH of MaDA. It counts as biochemical. The following applies: Diene 3 0.1 mM, Dienophile 1 0.1 mM, 0.02 μg MaDA, 5 min, buffers pH 4.0-11.0. The procedure: The effects of different reaction temperatures (25, 30, 35, 40, 45, 50, 55, 60, and 70° C.) on [4+2] cyclization catalyzed by MaDA were investigated using Diene 3 and Dienophile 1 as substrates. The reaction system was as follows: the reaction mixture (100 μL) containing Diene 3 (0.1 mM) and Dienophile 1 (0.1 mM), and 0.02 μg MaDA was reacted for 5 min in Tris HCl buffer at pH 7.5 (the buffer solution was balanced at different temperatures for 15 min in advance). After the reaction, 200 μL ice-cold methanol was added to terminate the reaction, and vortex mixing was carried out. The resulting mixture was centrifuged at 15,000 g for 30 min. The supernatant was analyzed by HPLC. […] The conversion of the substrate was calculated by substituting the peak area of the product into the standard curve to calculate the reduction of the substrate.
The effects of buffer at different pH (pH 4.0-6.0, citric acid-sodium citrate buffer; 6.0-7.0, disodium hydrogen phosphate-sodium dihydrogen phosphate buffer; 7.0-9.0, Tris HCl buffer; 9.0-11.0, sodium carbonate-sodium bicarbonate buffer) on the [4+2] cyclization reaction of MaDA was investigated using Diene 3 and Dienophile 1 as substrates. […] The supernatant was analyzed by HPLC. […] The conversion of the substrate was calculated by substituting the peak area of the product into the standard curve to calculate the reduction of substrate.

MaDA-2, sequence (as listed by the source): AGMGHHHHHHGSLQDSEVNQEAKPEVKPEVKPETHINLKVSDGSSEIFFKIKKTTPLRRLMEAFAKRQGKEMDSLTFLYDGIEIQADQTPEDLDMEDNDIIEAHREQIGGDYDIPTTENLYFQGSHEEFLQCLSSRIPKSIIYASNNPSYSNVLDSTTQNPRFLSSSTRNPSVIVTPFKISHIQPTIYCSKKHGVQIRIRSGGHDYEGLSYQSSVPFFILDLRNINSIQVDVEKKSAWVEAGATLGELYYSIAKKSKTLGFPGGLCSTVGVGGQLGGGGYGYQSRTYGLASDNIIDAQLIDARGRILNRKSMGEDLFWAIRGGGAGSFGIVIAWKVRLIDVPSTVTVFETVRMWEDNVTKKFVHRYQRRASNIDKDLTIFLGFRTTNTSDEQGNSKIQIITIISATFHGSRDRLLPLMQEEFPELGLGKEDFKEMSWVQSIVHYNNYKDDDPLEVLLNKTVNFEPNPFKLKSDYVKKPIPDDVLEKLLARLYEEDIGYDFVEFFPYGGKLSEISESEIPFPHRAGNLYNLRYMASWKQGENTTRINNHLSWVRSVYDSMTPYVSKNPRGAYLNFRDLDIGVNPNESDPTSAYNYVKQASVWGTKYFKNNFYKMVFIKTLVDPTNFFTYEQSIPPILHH

For morachalcone A [Dienophile 1], the conversion of dienophile in the data set with MaDA [1] (Diene 3 200 μM, dienophile 100 μM, MaDA or SUMO-MaDA 540 nM, pH 8.0, 50° C., 5 min, three repeated experiments) stood at 74%. In the data set with MaDA [1] (same condition as the conversion test (540 nM enzyme, 50° C., 5 min)), the “effective recognition of dienophile by MaDA protein” value is reported as “effectively recognize”. For the same molecule, the “MaDA-2 catalysed reaction between dienophile and different dienes” value in the data set with MaDA-2 is on record as “can also catalyze the reaction”. The “consumption of substrate with MaDA-1, chalcomoracin (4) produced” value in the data set with MaDA-1 is reported as “almost completely consumed”. In addition, in the data set with MaDA [2], the “consumption of substrate with MaDA, chalcomoracin (4) produced” value is recorded as “almost completely consumed”.
In the case of `C=C(C)/C=C/c1c(O)cc(-c2cc3ccc(O)cc3o2)cc1O` [Diene 3], the “consumption of substrate with MaDA-1, chalcomoracin (4) produced” value in the data set with MaDA-1 is reported as “almost completely consumed”. In the data set on MaDA [2], the “consumption of substrate with MaDA, chalcomoracin (4) produced” value is on record as “almost completely consumed”.

B1: MaDA: Diels-Alderase identified from Morus alba, amino acid sequence SEQ ID No.1 (protein)
chain: MQYFSFPSSLAKITIFLIFSFVFASSANDTHEAFLECLTTRIPSNSTFTPQSIIYTPDNPSYSTILDSTTQNPRFLSSSTRNPFAIITPLHASHIQAALYCSQKHGEQMRIRSGGHDYEGLSYQSSVPFFILDLRNLSSISIDAKSKSAWVQAGATIGELYYGIAKTSLNLSFPGGVAHTIGVGGQLGGGGYGYSTRKYGLASDNVIDAQLIDARGRILDRKTMGEDLFWAIRGGGAGSFGIVLAWKIRLVNTPSTVTIFEAVRSWENNTTKKFIRRYQRRASKTDKDLTIFVGFRTTSSTDEEGNERISILTIVSATFHGSKDRLLQLVQKEFPDLGLVSEECTEMSWVRSIIHFNLFGDEVPLEVLLNRTLNFEMKAFKLRSDYVQKPIPDDVLEKLLSKLYDEETGEGYIEFFPYGGKMSKISESEIPFPYRAGNLYNLRYMVSWKDDGNITRTNMHLSWIKDAYDYMTPYVSKDPRGAYLNFRDLDIGVNVNESDYDYVAKASVWGTKYFRNNFYRLVDIKTIVDPTNFFKYEQSIPPLPPLHSAM
On to B1, for which the “optimum pH” value in data set [3] turned out to be 8.0.
